This is an account of results in PubChem BioAssay (NCI).

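Compound exposure: 48 hours, 5 concentrations, 96-well plates. TGI denotes the concentration required for complete inhibition of growth.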

Test systems include MDA-N; IGROV1 ovarian; NCI-H226 lung; DU-145 prostate; 786-0 renal; ACHN renal; KM12 colon; HCT-116 colon; SF-539 CNS; COLO 205 colon; SF-268 CNS.
What all share (assay): growth of human tumour cells (NCI), 48 h

As for `Cc1ccc(/C=C2\N=C(N3CCCC(CO)C3)NC2=O)cc1` (stereo not drawn), the TGI with MDA-N, with IGROV1 ovarian, in the assay on NCI-H226 lung, with DU-145 prostate, in the assay with 786-0 renal and with ACHN renal was greater than 100 µM in each case. Moreover, the TGI in the assay with KM12 colon, in the assay on HCT-116 colon, in the assay on SF-539 CNS, in the assay on COLO 205 colon and with SF-268 CNS was greater than 100 µM each time.
As to `CCCCCCCCCCCCO[P+](=O)OCCCCCCCCCCCC`, the TGI with MDA-N, with IGROV1 ovarian, in the assay on NCI-H226 lung, with DU-145 prostate, with 786-0 renal and in the assay with ACHN renal was greater than 100 µM each time. Moreover, the TGI in the assay with KM12 colon was 72.2 µM; in the assay on HCT-116 colon, greater than 100 µM; with SF-539 CNS it was greater than 100 µM; in the assay on COLO 205 colon it was greater than 100 µM; in the assay with SF-268 CNS, greater than 100 µM.
With `CCOC(=O)C1=C(C)N(Cc2ccccc2)C2(O)C=CC(=O)C3=C(O)c4ccccc4C(=O)C312` (stereo not drawn), the TGI in the assay with MDA-N was determined as 22.3 µM; with IGROV1 ovarian it was 17.5 µM; with NCI-H226 lung, 54.4 µM; in the assay on DU-145 prostate, 38.3 µM; in the assay with 786-0 renal it was 26.2 µM; in the assay on ACHN renal, 34.6 µM. Also, the TGI with KM12 colon amounted to 28.5 µM; in the assay with HCT-116 colon it was 21.8 µM; in the assay on SF-539 CNS, 32.6 µM; with COLO 205 colon, 30.4 µM; in the assay on SF-268 CNS, 23.7 µM.
As to `C[C@H](CCC(=O)NCC(=O)O)[C@H]1CC[C@H]2[C@@H]3[C@H](O)C[C@@H]4C[C@H](O)CC[C@]4(C)[C@H]3CC[C@]12C`, the TGI in the assay with MDA-N, in the assay on IGROV1 ovarian, in the assay with NCI-H226 lung, with DU-145 prostate, with 786-0 renal and in the assay with ACHN renal was greater than 100 µM throughout. Also, the TGI in the assay on KM12 colon, in the assay on HCT-116 colon, with SF-539 CNS, in the assay on COLO 205 colon and in the assay on SF-268 CNS was greater than 100 µM in each case.
In the case of `O=C1c2cc([N+](=O)[O-])sc2C(=O)c2c([N+](=O)[O-])csc21`, the TGI in the assay with MDA-N worked out at 0.363 µM; with IGROV1 ovarian, 1.4 µM; with NCI-H226 lung, 3.8 µM; in the assay with DU-145 prostate, 3.07 µM; in the assay with 786-0 renal it was 1.66 µM; with ACHN renal it was 0.779 µM. Also, the TGI in the assay with KM12 colon came out at 2.6 µM; with HCT-116 colon, 1.78 µM; in the assay with SF-539 CNS it was 1.17 µM; with COLO 205 colon, 3.26 µM; in the assay on SF-268 CNS, 0.994 µM.
On to `C=C1CC2[C@H](C)C(=O)CCC2(C)C2=C1C1CCC(C(C)CCC(=C)C(C)C(=O)O)C1(C)CC2=O` (stereo partly drawn), for which the TGI in the assay with MDA-N was greater than 100 µM; with IGROV1 ovarian it was greater than 100 µM; in the assay on NCI-H226 lung, greater than 100 µM; in the assay on DU-145 prostate, greater than 100 µM; in the assay on 786-0 renal, 40.1 µM; in the assay with ACHN renal it was greater than 100 µM. The TGI in the assay with KM12 colon, in the assay with HCT-116 colon, in the assay with SF-539 CNS, in the assay with COLO 205 colon and with SF-268 CNS was greater than 100 µM throughout.
On to `CN1CCN([C@H]2C[C@H]3[C@@H]4CC=C5C[C@@H](O)CC[C@]5(C)[C@H]4CC[C@]3(C)[C@H]2O)CC1`, for which the TGI was 34.6 µM with MDA-N; greater than 100 µM with IGROV1 ovarian; greater than 100 µM with NCI-H226 lung; greater than 100 µM in the assay with DU-145 prostate; 32.1 µM in the assay on 786-0 renal; greater than 100 µM in the assay with ACHN renal. Also, the TGI is greater than 86.3 µM in the assay on KM12 colon; greater than 80.6 µM in the assay on HCT-116 colon; greater than 56.5 µM in the assay with SF-539 CNS; greater than 100 µM in the assay with COLO 205 colon; greater than 59.4 µM in the assay on SF-268 CNS.
In the case of `C=C1C(=O)OC2C3OC(C)(CCC(O)C3COC(C)=O)CC(OC(=O)/C(=C/C)COC(C)=O)C12` (stereo not drawn), the TGI in the assay with MDA-N was 0.645 µM; in the assay with IGROV1 ovarian, 2.85 µM; in the assay with NCI-H226 lung, 8.4 µM; with DU-145 prostate, 2.04 µM; with 786-0 renal it was 0.394 µM; in the assay on ACHN renal, 0.452 µM. Besides, the TGI in the assay on KM12 colon came to 3.45 µM; in the assay on HCT-116 colon it was 0.216 µM; with SF-539 CNS, 3.22 µM; with COLO 205 colon, 0.246 µM; in the assay with SF-268 CNS, 7.84 µM.
